Laboratory results: ChEMBL document CHEMBL1201862, “PubChem BioAssay data set” (2004)
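Growth conditions: 96-well plates. Treatment: test compound, 48 hours, 5 concentrations. Analysis: linear interpolation between bracketing concentrations; unreached endpoints set to highest concentration. GI50 is the concentration that inhibits growth by half.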 Activity calls are given as the source filed them. Cut-off read from the data, not from the text of the source: active = GI50 up to about 1.1 µM and inactive = higher.

Legend:
Assay in all cases: NCI tumour cell line growth inhibition, 48 h
[1] = system: SR
[2] = system: OVCAR-8
[3] = system: UACC-257
[4] = system: MDA-MB-231
[5] = system: HL-60
[6] = system: SK-OV-3
[7] = system: OVCAR-3
[8] = system: MDA-MB-435
[9] = system: 786-0
[10] = system: PC-3
[11] = system: A549
[12] = system: HCC 2998
[13] = system: OVCAR-5
[14] = system: COLO 205
[15] = system: Hs-578T
[16] = system: MCF7
[17] = system: OVCAR-4
[18] = system: DU-145
[19] = system: DMS-273
[20] = system: UACC-62

| Compound | GI50 [1] | GI50 [2] | GI50 [3] | GI50 [4] | GI50 [5] | GI50 [6] | GI50 [7] | GI50 [8] | GI50 [9] | GI50 [10] | GI50 [11] | GI50 [12] | GI50 [13] | GI50 [14] | GI50 [15] | GI50 [16] | GI50 [17] | GI50 [18] | GI50 [19] | GI50 [20] |
| --- | --- | --- | --- | --- | --- | --- | --- | --- | --- | --- | --- | --- | --- | --- | --- | --- | --- | --- | --- | --- |
| CCCCCCCCCCNC1CC(OC2CC(O)(C(O)CO)Cc3c(O)c4c(c(O)c32)C(=O)c2c(OC)cccc2C4=O)OC(C)C1O (stereo not drawn) | 408 nM (active) | 1550 nM (inactive) | 1720 nM (inactive) | 1360 nM (inactive) | 434 nM (active) | 1600 nM (inactive) | 1690 nM (inactive) | 1770 nM (inactive) | 1840 nM (inactive) | 1470 nM (inactive) | 1580 nM (inactive) | 1330 nM (inactive) | 1800 nM (inactive) | 1660 nM (inactive) | 1670 nM (inactive) | 1010 nM (active) | 1530 nM (inactive) | 1790 nM (inactive) | 1790 nM (inactive) | 1790 nM (inactive) |
| O=C(O)CCCCCCC[C@@H]1S[C@H]1CCCCCCO | – | > 100000 nM (inactive) | > 100000 nM (inactive) | – | > 100000 nM (inactive) | > 100000 nM (inactive) | > 100000 nM (inactive) | – | – | – | > 100000 nM (inactive) | > 100000 nM (inactive) | > 100000 nM (inactive) | > 100000 nM (inactive) | – | > 100000 nM (inactive) | > 100000 nM (inactive) | – | > 100000 nM (inactive) | > 100000 nM (inactive) |
